Data published in US12383579B2, “Materials and methods of using an inhibitor of plasminogen activation to treat anastomotic leak” (THE UNIVERSITY OF CHICAGO, priority 2018, dated 2025).
Several values for one entry are separate records, joined by “and”; a condition that tells them apart may be missing. Identical values can stand only once. Entries after “also recorded” stand apart in the source; their conditions may differ.

What was measured:
[1] = biological target: FITC-PLG at the anastomosis (Homo sapiens, UniProt P00747); assay: In vivo deposition of FITC-PLG at surgical anastomoses; parameters: species or system mice; conditions: TXA enema one hour prior to sacrifice, 48 and 72 hours post-operative
Method: Mice underwent anastomosis without exposure to antibiotics or exogenous pathogen followed by intraperitoneal injection with FITC-PLG and either TXA or vehicle control enema one hour prior to sacrifice. Three animals per treatment group were sacrificed at various time points. […] Either TXA or water vehicle enema was administered along with systemic FITC-PLG injection one hour prior to sacrifice. […] Total FITC-PLG fluorescent signal was quantified in all mice as integrated density/area. […] A segment of anastomotic tissue collected from a mouse that received no enemas at 24 hours post-operative was observed. FITC-PLG fluorescence intensity is spatially quantified across the length of the tissue.
Mean FITC staining intensity was quantified as integrated density/area at the anastomotic sites of three mice per treatment group at the 48- and 72-hour time points.

RAW macrophages = assay: PLG activation by RAW macrophages stimulated with E44 conditioned media; assay type: cell-based, murine; conditions: TXA 10 mM, PLG 250 nm, 4 hours
Method: (A), E. faecalis E44 was grown in TY media overnight, and cell-free conditioned media (E44s) was applied to RAW macrophages for 4 hours. PLG, 250 nm, was included in the reaction. TXA, 10 mM, was added when needed. PLG activation was measured by fluorogenic substrate cleavage. “RAW” column is naïve RAW. *p<0.05, n=6/group. (B), Conditioned media after co-interaction of macrophages with E. faecalis E44 (named RAW/E44s) was applied to naïve RAW macrophages for 4 hours. PLG, 250 nm, and MMP9, 1 nM, were in all reactions. TXA, 10 mM, was added when needed. “RAW+RAWs” column is naïve macrophages incubated with conditioned media of RAW macrophages (no E. faecalis E44). *p<0.05, n=6/group.
RAW 264.7 or J774 murine macrophages were incubated at 37° C. and 5% CO2 in Dulbecco's modified eagle media (DMEM) with 10% fetal bovine serum, penicillin/streptomycin and antifungals during growth. For plasmin activity assays, cells were plated at 10^4 cells/well on a 96-well plate in phenol-free DMEM with 1% FBS. Added bacteria were in low volumes of TY.
RAW 267.4 murine macrophages are co-incubated with E44, reasoning that bacteria and macrophages regularly co-interact in healing gut tissue. […] To confirm the expectation, naïve macrophages were stimulated with conditioned media from E44 overnight culture.

[2] = test system: P. aeruginosa-induced anastomotic leak; assay: Mouse model of P. aeruginosa-induced anastomotic leak; assay type: in vivo, mice
Method: Mouse model of AL. The experiments disclosed herein used the validated model of pathogen-mediated AL in mice (8′). Ten- to 12-week-old C57BL/6 mice (Charles River) were provided standard chow and tap water ad libidum at all times. When indicated, mice received oral clindamycin (100 mg/kg gavage) and subcutaneous cefoxitin (40 mg/kg) the day prior to, and the day of, surgery. Mice underwent general anesthesia with intraperitoneal ketamine and xylocaine and laparotomy followed by transection of the colon at the colo-rectal junction followed by a primary anastomosis created with interrupted 8-0 prolene suture prior to abdominal closure with 4-0 vicryl suture in two layers. Rectal enemas containing pathogen, either E. faecalis or P. aeruginosa at an OD600 of 0.1 in 10% glycerol, were administered in 100 L enemas. E. faecalis was introduced on POD 1, 2, and 3, while P. aeruginosa was introduced only on POD 1. […] Rectal delivery with a gavage needle ensured local administration of pathogen and study drugs to the surgical site. Rules for stopping the experiment were enacted if mice appeared moribund or in any distress whereby they were sacrificed immediately. There were three deaths prior to planned sacrifice, all determined secondary to feculent peritonitis due to AL. Both the surgeon and the investigator performing analysis of healing were blind to the treatment group. […]

[3] = test system: RAW macrophages stimulated by V583; assay: Gelatin degradation by V583-stimulated RAW macrophages; assay type: cell-based, murine; conditions: 10 mM TXA
[4] = test system: E. faecalis V583-induced AL
Method: Mouse model of AL. The experiments disclosed herein used the validated model of pathogen-mediated AL in mice (8′). Ten- to 12-week-old C57BL/6 mice (Charles River) were provided standard chow and tap water ad libidum at all times. When indicated, mice received oral clindamycin (100 mg/kg gavage) and subcutaneous cefoxitin (40 mg/kg) the day prior to, and the day of, surgery. Mice underwent general anesthesia with intraperitoneal ketamine and xylocaine and laparotomy followed by transection of the colon at the colo-rectal junction followed by a primary anastomosis created with interrupted 8-0 prolene suture prior to abdominal closure with 4-0 vicryl suture in two layers. Rectal enemas containing pathogen, either E. faecalis or P. aeruginosa at an OD600 of 0.1 in 10% glycerol, were administered in 100 L enemas. E. faecalis was introduced on POD 1, 2, and 3, while P. aeruginosa was introduced only on POD 1. Mice received 100 L rectal enemas containing 50 mM TXA or vehicle control on postoperative days 1, 2, and 3. Rectal delivery with a gavage needle ensured local administration of pathogen and study drugs to the surgical site. […] Both the surgeon and the investigator performing analysis of healing were blind to the treatment group. […]

[5] = biological target: PLG with uPA and pro-MMP9 (Homo sapiens, UniProt P00747); assay: Collagen/gelatin degradation by PLG, uPA and pro-MMP9 in a sterile system; assay type: biochemical
Method: Collagen degradation. Assays were performed per the manufacturer's instructions as previously described with slight modifications (51′). Bacteria were grown overnight in TY. Optical density was normalized to 0.1 through dilution. Bacteria were then incubated with fluorescein-labeled type I collagen, type IV collagen, or gelatin according to the manufacturer's instructions (ThermoFisher), human PLG at 250 nM and TXA. Total reaction volume was 200 L. The incubation proceeded at 37° C. for 5 hours to allow for bacterial attachment to collagen and PLG binding. uPA was added and the incubation proceeded for an additional hour. Change in fluorescence over time at 480/520 nm was determined kinetically over the initial 30 minutes of the reaction.

[6] = test system: type IV collagen degradation by V583; assay: Type IV collagen degradation by E. faecalis V583 with PLG and uPA; assay type: biochemical, Enterococcus faecalis
Method: (§1) Collagen degradation. Assays were performed per the manufacturer's instructions as previously described with slight modifications (51′). Bacteria were grown overnight in TY. Optical density was normalized to 0.1 through dilution. […] Total reaction volume was 200 L. The incubation proceeded at 37° C. for 5 hours to allow for bacterial attachment to collagen and PLG binding. uPA was added and the incubation proceeded for an additional hour. Change in fluorescence over time at 480/520 nm was determined kinetically over the initial 30 minutes of the reaction.

[7] = biological target: PLG activation by E. faecalis V583 (Homo sapiens, UniProt P00747); assay type: biochemical
Method: Plasminogen/uPA activity. Plasmin activity assays were performed as previously described with minor modifications, and fluorescence data was analyzed per the manufacturer's instructions (50′). Incubation times were optimized for bacteria at low optical density to limit internal filter effects in fluorescence-based assays. Bacteria (when included) were grown overnight in TY media. OD600 was normalized by dilution to 0.1, equivalent to 8×10^7 CFU/mL. Samples at OD 0.1 were diluted 1:10 in the final reaction through the addition of media and dissolved substrates. Bacteria were incubated with 250 nM human glu-plasminogen (Haematologic technologies) for two hours at 37° C. TXA (Fisher) was added concomitantly with PLG. […] A final concentration of 6 M fluorogenic substrate specific for plasmin (H-D-Val-Leu-Lys-AFC, AnaSpec) was added immediately prior to a kinetic fluorescent read with excitation wavelength 380 nm and emission wavelength 500 nm. Reads were conducted every 15 to 30 seconds over the course of 30 minutes. […] When assays were performed in human plasma, fluorescence was read for 120 minutes total.
Plasmin or uPA activity is expressed as initial reaction velocity calculated from change in fluorescence over time during the initial phase of the reaction, when pseudo-first order kinetics determine the rate due to high substrate concentrations where a linear rise in fluorescence is observed. […]

[8] = test system: type IV collagen degradation by collagenolytic E. faecalis E44; assay: Collagen degradation by E. faecalis E44 with PLG, uPA and MMP9; assay type: biochemical, Enterococcus faecalis; conditions: fluorescently tagged type IV collagen
Method: as §1
(§2) The role of activated plasminogen (PLG) in anastomotic leak. […] Co-incubation of E44 with murine macrophages ([…]) was performed for studies involving conditioned media. Twenty-week-old male C57BL/6 mice underwent the validated model of E44-induced AL that includes preoperative antibiotics to defaunate the colon, surgical transection and anastomosis of the colon and introduction of E44 in 10% glycerol to the surgical site via rectal enema on postoperative day 1. […] Anastomotic healing was assessed blindly using a validated anastomotic healing score (AHS): 0=uncomplicated healing, 1=flimsy adhesions, 2=dense adhesions, 3=abscess, and 4=gross anastomotic disruption. AL was defined as AHS 3 or above.

[9] = test system: E. faecalis E44-induced AL; assay: Mouse model of E44-induced anastomotic leak; assay type: in vivo, C57BL/6 mice
Method: as §2

[10] = test system: FITC-labeled PLG binding to E. faecalis V583 cell surface; assay: Flow cytometric evaluation of FITC-PLG binding to E. faecalis; parameters: species or system Enterococcus faecalis; conditions: for geometric mean fluorescence intensity of cells (surface-bound FITC-PLG): 1768 in the absence of TXA
Method: Flow cytometric evaluation of PLG binding. PLG binding to the bacterial surface was measured as previously described, with minor modifications (52′). Bacteria were grown overnight in TY. Cultures were diluted to a final density of roughly 8×10^6 CFU/mL. […] Cells were pelleted, washed three times with PBS, and resuspended. Fluorescence was analyzed using an Imagestream ISX flow cytometer. Enterococci were detected using log-forward and log-side scatter dot plots, and a gating region was set to exclude debris and aggregates of bacteria. Bacteria were analyzed for FITC-range fluorescence using log-scale amplification, of which the geometric mean fluorescence intensity was recorded as a measure for PLG binding. FITC-range fluorescent signal was confirmed by light and fluorescent microscopy of each event.
Flow cytometry was performed after incubation of V583 with FITC-labeled PLG as before. 80.9% of cells reached a subjectively determined threshold for surface-bound FITC-PLG. […] The effect was concentration-dependent and statistically significant (FIG. 37D).

E. faecalis = E. faecalis growth (OD600 over four hours); assay type: cell-based, Enterococcus faecalis; conditions: TXA added to culture medium
Description: FIG. 44. […] Figures are representative of three separate experiments, each run in triplicate. Error bars indicate means±SD.

[11] = test system: polymicrobial communities cultured from the postoperative mouse colon; assay: Plasmin activity assay of polymicrobial communities from postoperative mouse colon; assay type: biochemical; conditions: 10 mM TXA, exogenous PLG and uPA
Method: Polymicrobial communities collected from homogenized tissue and luminal contents were cultured aerobically in nonspecific media and underwent plasmin activity assays in the presence of human PLG and uPA. […] (*p<0.05, ANCOVA). Error bars indicate means±SD. All data are representative of three separate experiments, each run in triplicate.
Plasminogen/uPA activity. Plasmin activity assays were performed as previously described with minor modifications, and fluorescence data was analyzed per the manufacturer's instructions (50′). Incubation times were optimized for bacteria at low optical density to limit internal filter effects in fluorescence-based assays. Bacteria (when included) were grown overnight in TY media. […] A final concentration of 6 M fluorogenic substrate specific for plasmin (H-D-Val-Leu-Lys-AFC, AnaSpec) was added immediately prior to a kinetic fluorescent read with excitation wavelength 380 nm and emission wavelength 500 nm. Reads were conducted every 15 to 30 seconds over the course of 30 minutes. […] When assays were performed in human plasma, fluorescence was read for 120 minutes total.
Plasmin activity assays were measured in polymicrobial communities cultured aerobically from homogenized luminal contents or tissue following anastomotic surgery without antibiotics and without introduction of a leak-inducing pathogen (e.g., E. faecalis, P. aeruginosa, S. marcescens). […]

Chain of PLG activation by E. faecalis V583 (P00747 20-810): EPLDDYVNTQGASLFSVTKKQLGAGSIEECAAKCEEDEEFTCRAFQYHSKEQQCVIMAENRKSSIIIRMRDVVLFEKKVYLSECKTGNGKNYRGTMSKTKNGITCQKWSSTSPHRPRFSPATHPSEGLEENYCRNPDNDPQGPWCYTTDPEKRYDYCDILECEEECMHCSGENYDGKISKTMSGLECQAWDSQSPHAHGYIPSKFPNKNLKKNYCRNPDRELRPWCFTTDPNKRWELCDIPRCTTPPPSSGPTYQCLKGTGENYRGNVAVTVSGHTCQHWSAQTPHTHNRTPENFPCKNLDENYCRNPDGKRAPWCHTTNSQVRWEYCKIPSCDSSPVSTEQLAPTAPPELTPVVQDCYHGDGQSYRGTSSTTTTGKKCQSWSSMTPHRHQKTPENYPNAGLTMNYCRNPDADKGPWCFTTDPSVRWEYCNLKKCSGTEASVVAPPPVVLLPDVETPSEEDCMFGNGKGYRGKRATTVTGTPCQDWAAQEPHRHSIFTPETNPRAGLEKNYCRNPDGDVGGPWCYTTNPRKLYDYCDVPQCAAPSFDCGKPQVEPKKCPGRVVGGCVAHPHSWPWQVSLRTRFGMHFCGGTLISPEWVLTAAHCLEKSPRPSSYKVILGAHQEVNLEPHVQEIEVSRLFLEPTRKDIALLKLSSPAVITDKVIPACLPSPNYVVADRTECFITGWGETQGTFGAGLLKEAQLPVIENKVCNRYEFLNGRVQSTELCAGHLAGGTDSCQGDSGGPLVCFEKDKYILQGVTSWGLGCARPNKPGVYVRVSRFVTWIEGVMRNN
Chain of PLG with uPA and pro-MMP9 (P00747 20-810 limits assumed): as the sequence (P00747 20-810) above
Chain of FITC-PLG at the anastomosis (P00747 20-810 limits assumed): as the sequence (P00747 20-810) above

## NC[C@H]1CC[C@H](C(=O)O)CC1 [TXA, tranexamic acid]
[1]
  FITC-PLG positivity at the anastomosis (integrated density/area): significantly decreased the amount of FITC-PLG positivity at the anastomosis at both time points
RAW macrophages
  PLG activation by macrophages stimulated with E44 conditioned media: This effect was inhibited
[2]; 5 mice per group, enema POD 1, 2, 3
  clinical / gross leak: None of the mice
[2]; 100 μL enema POD 1, 2, 3 (50 mM TXA in water or PBS), POD 8, water 3.8±0.4
  anastomotic healing score (AHS): 1.6±0.5 and 1.6+/−0.6
[3]; PLG, uPA, 6 hours, no added pro-MMP9
  gelatin degradation in V583-stimulated macrophages: significantly inhibited gelatin degradation
[3]; with added pro-MMP9
  gelatin degradation in V583-stimulated macrophages: significantly diminished
[4]; 100 μL enema of 50 mM TXA POD 1, 2, 3, POD 8, vehicle 2.7±0.2
  mean anastomotic healing score (AHS): 1.5±0.2
[4]; TXA enema versus vehicle with AL
  trichrome staining of POD8 anastomotic tissue: increased quantity and organization of fibroblastic products in the submucosa
[5]
  gelatin / type IV collagen degrading activity of PLG with uPA and pro-MMP9: inhibited in a concentration-dependent manner
[6]; V583, PLG, uPA and TXA
  type IV collagen degradation by V583 with PLG and uPA: concentration-dependent inhibition
[6]; same concentration levels as for PLG activation (FIG. 23)
  reduction of bacterial collagen degradation: over 80%
[7]; in vitro, concentrations lower than circulating concentration after PO dosing (FIG. 23)
  reduction in PLG activation by E. faecalis: 20%
[7]; plasmin activity assay, PLG 250 nM, uPA
  PLG activation by V583 in the presence of uPA: inhibited PLG activation by V583 in a concentration-dependent manner
[8]
  collagen degradation by E44 with PLG, uPA and MMP9: inhibited by TXA in a concentration-dependent fashion; also recorded: collagen degradation was inhibited
[8]; listed as tranexamic acid
  collagen degradation by E44 with PLG, uPA and MMP9: inhibited in a concentration-dependent manner
[9]; TXA 0.75 mg/kg rectal enema POD 1, 2 and 3, POD 8
  overall healing (AHS) compared to vehicle control: significantly superior
[9]; TXA 0.75 mg/kg rectal enema, scored postoperative day 8, vehicle 2.8
  mean anastomotic healing score (AHS): 1.4
[10]; 2 mM TXA
  geometric mean fluorescence intensity of cells (surface-bound FITC-PLG): 936
[10]; 10 mM TXA
  geometric mean fluorescence intensity of cells (surface-bound FITC-PLG): 77
[10]; flow cytometry and single-cell microscopy
  surface binding of FITC-PLG by E. faecalis: decrease in surface binding of FITC-PLG; also recorded: Fluorescent signal was not present
E. faecalis
  bacterial growth (change in OD600 over four hours): no effect on bacterial growth
[11]
  plasmin-activating activity of polymicrobial communities: significantly inhibited
